The assay deals with reserpine-induced tremors. In words: Reserpine-induced tremors in rats (tremor monitor power spectra). The format is in vivo, rat. The conditions noted are these: for effect on reserpine-induced tremors in pilot studies: rats, L-DOPA with benserazide. From the text: Parkinson's disease is associated with severe dopamine deficiency caused by neurodegeneration of dopaminergic cell bodies residing in Substantia Nigra pars compacta. As alpha6 nAChRs are enriched in the nigrostriatal dopamine pathway, activating this receptor may ameliorate symptoms in nigro-striatal dopamine deficiency models. Reserpine injections to rodents result in depletion of monoamines in the nigro-striatal dopamine pathway, resulting in catalepsy and tremors. Both behaviours can be quantified using dedicated tremor boxes.
Six groups of male Sprague Dawley rats (250-300 grams) were subjected to the following treatment schedules, and effects on power spectra, assessed in automated tremor monitors were evaluated for 30 minutes: • Vehicle+vehicle • Vehicle+reserpine (1 mg/kg) • 9-Methyl-3-pyridin-3-yl-3,9-diaza-bicyclo[3.3.1]nonane (0.1 mg/kg)+reserpine (1 mg/kg) • 9-Methyl-3-pyridin-3-yl-3,9-diaza-bicyclo[3.3.1]nonane (1.0 mg/kg)+reserpine (1 mg/kg) • L-DOPA (100 mg/kg)+reserpine (1 mg/kg) • 9-Methyl-3-pyridin-3-yl-3,9-diaza-bicyclo[3.3.1]nonane (1.0 mg/kg)+L-DOPA (100 mg/kg)+reserpine (1 mg/kg)
Reserpine was pre-treated i.v. 60 minutes prior to test start in a dose volume of 2 ml/kg. 9-Methyl-3-pyridin-3-yl-3,9-diaza-bicyclo[3.3.1]nonane was pre-treated s.c. 45 minutes prior to test start in a dose volume of 1 ml/kg. The dose of 9-methyl-3-pyridin-3-yl-3,9-diaza-bicyclo[3.3.1]nonane was based on 3H-epibatidin displacement studies showing half maximal displacement of specific binding of 3H-epibatidin in doses equaling 0.15 mg/kg in rats. L-DOPA was pre-treated i.p. 30 minutes prior to test start in a dose volume of 5 ml/kg. […] All animals dosed with L-DOPA was also dosed with the peripherally acting decarboxylase inhibitor Benserazide to prevent the peripheral break down of L-DOPA (benserazide: 50 mg/kg, s.c., 30 min. prior to test start in a dose volume of 1 ml/kg).

Setting [1] is: reserpine 1 mg/kg i.v., compound 0.1 and 1.0 mg/kg s.c., L-DOPA 100 mg/kg i.p. + benserazide.

This note sets out measurements from US20180311238A1, “Selective Agonist Of a6 Containing nAChRs” (Saniona A/S, priority 2017, published 2018).

On to `N[C@@H](Cc1ccc(O)c(O)c1)C(=O)O` [L-DOPA], for which the “activity per se of the L-DOPA dose in pilot studies” value (pilot studies, L-DOPA 100 mg/kg i.p.) was “marginal activity per se”. Also, under “pilot studies”, the “effect on reserpine-induced tremors in pilot studies” value is recorded as “reverse reserpine-induced tremors”. Also, the “effect on reserpine-induced tremors, AUC 20-43 Hz” value (reserpine 1 mg/kg i.v., L-DOPA 100 mg/kg i.p. + benserazide) is listed as “without exerting any effects”. For the same compound, under setting [1], the “effect on reserpine-induced tremors, AUC 40-63 Hz” value is listed as “reduces reserpine-induced tremors” and the “reversal of reserpine-induced reduction of low frequency movements (catalepsy), AUC 3-13 Hz” value is “Neither threshold dose of L-DOPA, nor 9-methyl-3-pyridin-3-yl-3,9-diaza-bicyclo[3.3.1]nonane or the combination of the two, was able to reverse this reduction”.

For `CN1CCc2cccc3c2[C@H]1Cc1ccc(O)c(O)c1-3` [apomorphine], for the setting “pilot studies”, the “effect on reserpine-induced tremors in pilot studies” value is given as “reverse reserpine-induced tremors”.
